The assay relates to BDF1 mice, P388 leukemia ip, median survival T/C. As to the kind of experiment: NCI In Vivo Anticancer Drug Screen. Data for tumor model P388 Leukemia (intraperitoneal) in B6D2F1 (BDF1) mice. The note with it: endpoint: median survival time, higher = longer survival. A digest of the protocol: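 Transplantable tumour in mice; compound vs vehicle dosing; survival scored; ratio of treated to control reported.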

[1] abbreviates: dose: 6.25 mg/kg/injection, schedule: Q01DX009 (ip), vehicle: saline.
Setting [2] is: dose: 12.5 mg/kg/injection, schedule: Q01DX009 (ip), vehicle: saline.
The mark [3] stands for this setting: dose: 25.0 mg/kg/injection, schedule: Q01DX009 (ip), vehicle: saline.
The mark [4] stands for this setting: dose: 100.0 mg/kg/injection, schedule: Q01DX009 (ip), vehicle: saline.
[5] abbreviates: dose: 100.0 mg/kg/injection, schedule: Q04DX003 (ip), vehicle: saline.
Where [6] appears, read: dose: 50.0 mg/kg/injection, schedule: Q01DX009 (ip), vehicle: Klucel (hydroxypropylcellulose) (HPC).
The mark [7] stands for this setting: dose: 200.0 mg/kg/injection, schedule: Q01DX001 (ip), vehicle: saline with Tween-80.
Where [8] appears, read: dose: 400.0 mg/kg/injection, schedule: Q01DX001 (ip), vehicle: saline with Tween-80.
The mark [9] stands for this setting: dose: 200.0 mg/kg/injection, schedule: Q01DX009 (ip), vehicle: saline.
[10] abbreviates: dose: 100.0 mg/kg/injection, schedule: Q01DX009 (ip), vehicle: saline with Tween-80.
Setting [11] is: dose: 200.0 mg/kg/injection, schedule: Q01DX009 (ip), vehicle: saline with Tween-80.
Where [12] appears, read: dose: 3.13 mg/kg/injection, schedule: Q01DX009 (ip), vehicle: saline with Tween-80.
[13] abbreviates: dose: 6.25 mg/kg/injection, schedule: Q01DX009 (ip), vehicle: saline with Tween-80.

Molecules are shown by their SMILES. Where “and” joins values, the source holds several entries; their conditions need not be identical. Equal values may be shown once. Inconclusive results and toxic doses are left out.

As for `C=CCOP(=O)(N1CC1C)N1CC1C` (configuration not stated), the T/C was 106 % of control under setting [1]; 99 % of control under setting [2]; 106 % of control under setting [3]; 109 % of control (dose: 30.0 mg/kg/injection, schedule: Q04DX003 (ip), vehicle: saline); 118 % of control (dose: 45.0 mg/kg/injection, schedule: Q04DX003 (ip), vehicle: saline); 150 % of control and 161 % of control (dose: 75.0 mg/kg/injection, schedule: Q01DX009 (ip), vehicle: saline). In addition, the T/C is, setting by setting: under setting [4], 117 % of control; under setting [5], 180 % of control and 188 % of control; (dose: 150.0 mg/kg/injection, schedule: Q04DX003 (ip), vehicle: saline) 188 % of control.

For `Cc1ccc(C2NC(=O)c3ccccc3N2)s1` (configuration not stated), under setting [6], the T/C was 107 % of control and 113 % of control.

In the case of `Cc1cc(-c2ccccc2)nnc1NCCN1CCOCC1`, the T/C by setting is: under setting [1], 106 % of control; under setting [2], 90 % of control; under setting [3], 88 % of control.

For the compound `ClCCN(CCCN(CCCl)c1ccccc1)c1ccccc1`, the T/C (dose: 100.0 mg/kg/injection, schedule: Q01DX001 (ip), vehicle: saline + alcohol) is 118 % of control; the T/C under setting [7] is 156 % of control; the T/C (dose: 400.0 mg/kg/injection, schedule: Q01DX001 (ip), vehicle: saline + alcohol) was 151 % of control; the T/C under setting [8] was 166 % of control; the T/C (dose: 800.0 mg/kg/injection, schedule: Q01DX001 (ip), vehicle: saline with Tween-80) was 205 % of control.

For the compound `COc1cccc(OC)c1C1(O)c2c(OC)cccc2Oc2cccc(OC)c21`, the T/C was 95 % of control (dose: 100.0 mg/kg/injection, schedule: Q01DX001 (ip), vehicle: Klucel (hydroxypropylcellulose) (HPC)); 100 % of control (dose: 200.0 mg/kg/injection, schedule: Q01DX001 (ip), vehicle: Klucel (hydroxypropylcellulose) (HPC)); 104 % of control (dose: 400.0 mg/kg/injection, schedule: Q01DX001 (ip), vehicle: Klucel (hydroxypropylcellulose) (HPC)).

`Clc1nc(Cl)nc(-c2cccn2-c2ccccc2)n1`: the T/C by setting is: (dose: 25.0 mg/kg/injection, schedule: Q01DX009 (ip), vehicle: Klucel (hydroxypropylcellulose) (HPC)) 100 % of control; under setting [6], 100 % of control; (dose: 100.0 mg/kg/injection, schedule: Q01DX009 (ip), vehicle: Klucel (hydroxypropylcellulose) (HPC)) 104 % of control; (dose: 150.0 mg/kg/injection, schedule: Q01DX009 (ip), vehicle: Klucel (hydroxypropylcellulose) (HPC)) 105 % of control; (dose: 225.0 mg/kg/injection, schedule: Q01DX009 (ip), vehicle: Klucel (hydroxypropylcellulose) (HPC)) 95 % of control.

On to `CC(C)C[C@H](O)C(=O)O`, for which the T/C is 95 % of control under setting [3]; 109 % of control (dose: 44.0 mg/kg/injection, schedule: Q01DX009 (ip), vehicle: saline); 109 % of control (dose: 66.0 mg/kg/injection, schedule: Q01DX009 (ip), vehicle: saline); 95 % of control and 120 % of control under setting [4]; 118 % of control (dose: 150.0 mg/kg/injection, schedule: Q01DX009 (ip), vehicle: saline); 95 % of control under setting [9].

As to `CC(=O)OCC(OC(C)=O)C(OC(C)=O)C(OC(C)=O)C1COC(C)(C)O1` (configuration not stated), the T/C was 94 % of control (dose: 75.0 mg/kg/injection, schedule: Q01DX009 (ip), vehicle: saline with Tween-80); 86 % of control (dose: 150.0 mg/kg/injection, schedule: Q01DX009 (ip), vehicle: saline with Tween-80); 91 % of control (dose: 300.0 mg/kg/injection, schedule: Q01DX009 (ip), vehicle: saline with Tween-80).

With `CC(=N\O)/C(C)=N/O.CC(=N\O)/C(C)=N/O.[Cl][Co][Cl]`, the T/C was 90 % of control and 99 % of control under setting [1]; 100 % of control under setting [2]; 99 % of control under setting [3]; 94 % of control and 110 % of control (dose: 50.0 mg/kg/injection, schedule: Q01DX009 (ip), vehicle: saline); 91 % of control and 110 % of control under setting [4]; 100 % of control under setting [9].

On to `COc1ccc2c(C#N)cc3c4ccccc4ncc3c2c1`, for which the T/C (dose: 12.5 mg/kg/injection, schedule: Q01DX009 (ip), vehicle: distilled water + Tween-80) is 107 % of control; the T/C (dose: 25.0 mg/kg/injection, schedule: Q01DX009 (ip), vehicle: distilled water + Tween-80) is 113 % of control; the T/C (dose: 50.0 mg/kg/injection, schedule: Q01DX009 (ip), vehicle: distilled water + Tween-80) is 88 % of control; the T/C (dose: 100.0 mg/kg/injection, schedule: Q01DX009 (ip), vehicle: distilled water + Tween-80) is 88 % of control.

With `CCC(=N\NC(=S)NCCN(C)C)/C(C)=N/NC(=S)NCCN(C)C`, the T/C (dose: 0.75 mg/kg/injection, schedule: Q04DX003 (ip), vehicle: saline) was 103 % of control; the T/C (dose: 1.5 mg/kg/injection, schedule: Q04DX003 (ip), vehicle: saline) was 103 % of control; the T/C (dose: 3.0 mg/kg/injection, schedule: Q04DX003 (ip), vehicle: saline) is 97 % of control.

Regarding `CC(=O)NC(N)=O`, the T/C (dose: 100.0 mg/kg/injection, schedule: Q01DX001 (ip), vehicle: saline with Tween-80) is 100 % of control; the T/C under setting [7] is 100 % of control; the T/C under setting [8] was 109 % of control.

With `C[N+](C)(CC(=O)Nc1ccc(Cl)c(C(F)(F)F)c1)Cc1ccc(Cl)cc1`, the T/C is 110 % of control (dose: 25.0 mg/kg/injection, schedule: Q04DX003 (ip), vehicle: saline sonified); 110 % of control (dose: 50.0 mg/kg/injection, schedule: Q04DX003 (ip), vehicle: saline sonified); 90 % of control (dose: 100.0 mg/kg/injection, schedule: Q04DX003 (ip), vehicle: saline sonified).

In the case of `C[C@]12C=CC(=O)C[C@@H]1CC[C@@H]1[C@@H]2C(=O)C[C@]2(C)C(=O)CC[C@@H]12`, the T/C reads like this: under setting [10], 100 % of control; under setting [11], 100 % of control; (dose: 400.0 mg/kg/injection, schedule: Q01DX009 (ip), vehicle: saline with Tween-80) 109 % of control.

`CC(C)(C)OC(=O)CNC(=O)CCl`: the T/C was 100 % of control (dose: 50.0 mg/kg/injection, schedule: Q04DX003 (ip), vehicle: saline); 100 % of control under setting [5]; 108 % of control (dose: 200.0 mg/kg/injection, schedule: Q04DX003 (ip), vehicle: saline).

As to `CCCCCCCCCCCCCCCc1ccc(C(=O)C[n+]2ccccc2)cc1`, the T/C is, setting by setting: under setting [12], 100 % of control; under setting [13], 104 % of control; (dose: 12.5 mg/kg/injection, schedule: Q01DX009 (ip), vehicle: saline with Tween-80) 118 % of control; (dose: 16.5 mg/kg/injection, schedule: Q04DX003 (ip), vehicle: saline with Tween-80) 122 % of control.

As for `Cc1ccc(C(=O)N(O)c2ccccc2)cc1`, the T/C was 98 % of control (dose: 50.0 mg/kg/injection, schedule: Q01DX009 (ip), vehicle: saline with Tween-80); 95 % of control under setting [10]; 104 % of control under setting [11].

Take `COc1ccc(NC(=O)Oc2ccc(OC)cc2)cc1`: the T/C was 95 % of control (dose: 100.0 mg/kg/injection, schedule: Q04DX003 (ip), vehicle: Klucel (hydroxypropylcellulose) (HPC)); 100 % of control (dose: 200.0 mg/kg/injection, schedule: Q04DX003 (ip), vehicle: Klucel (hydroxypropylcellulose) (HPC)); 91 % of control (dose: 400.0 mg/kg/injection, schedule: Q04DX003 (ip), vehicle: Klucel (hydroxypropylcellulose) (HPC)).

Regarding `CSC(=S)NN=C1CCCCC1`, the T/C was 99 % of control (dose: 0.78 mg/kg/injection, schedule: Q01DX009 (ip), vehicle: saline with Tween-80); 105 % of control (dose: 1.56 mg/kg/injection, schedule: Q01DX009 (ip), vehicle: saline with Tween-80); 104 % of control under setting [12]; 102 % of control under setting [13].

For the compound `CC1(C)COC(c2ccc(CC(Cc3ccc(C4(C(C)(C)C)OCC(C)(C)CO4)cc3)C(=O)O)cc2)(C(C)(C)C)OC1`, the T/C runs as follows: (dose: 50.0 mg/kg/injection, schedule: Q01DX005 (ip), vehicle: saline with Tween-80) 86 % of control; (dose: 100.0 mg/kg/injection, schedule: Q01DX005 (ip), vehicle: saline with Tween-80) 93 % of control; (dose: 200.0 mg/kg/injection, schedule: Q01DX005 (ip), vehicle: saline with Tween-80) 96 % of control.

The values are drawn from PubChem BioAssay AID328 (DTP/NCI, 2004).
